Source: patent US20230010299A1, “HETEROCYCLIC TRPML1 AGONISTS” (LIBRA THERAPEUTICS, INC., priority 2019, published 2023)

target: T1, TRPML1 (Homo sapiens, UniProt Q9GZU1); assay: Cellular TRPML1 assay (FLIPR TETRA, GCaMP6f calcium read-out); assay type: cell-based; conditions: HEK T-REx/GCaMP6f/TRPML1 cells; Ca2+ response over 300 s, normalized to ML-SA1 50 μM; Ca2+ free or Optimem condition not given; read-out: Ec50 (Activity of TRPML1 agonists)
T1 construct: expressed in transfected cells
Experimental: Buffers and reagents • PBS (D-PBS without calcium and magnesium; EuroClone) • Trypsin (Trypsin 0.05%, EDTA 0.02% in PBS; EuroClone) • DMSO (Sigma) • Ca^2+ free Tyrode's buffer: in-house solution (130 mM NaCl, 5 mM KCl, 1 mM MgCl2, 5 mM NaHCO3, 20 mM HEPES in water at pH 7.4; sterile filtered). • Opti-MEM (Gibco) • Agonist: ML-SA1 (Sigma); stock: 60 mM in DMSO, stored at −20° C. • Blocker: ML-SI3 (in house synthesis); stock: 20 mM in DMSO, stored at −20° C.
The final clone for the TRPML1 assay is HEK T-REx/GCaMP6f/TRPML1.
GCaMP6f is a genetically encoded calcium indicator that is stably expressed in this cell line and used as a fluorescent read-out.
Experiments are performed in 384 MTP format. Cells are seeded at 15000 cells/well either in 25 μl/well of growth medium or in 20 μl/well of Optimem+0.5% FBS without selection antibiotics. Twenty-four hours later, cells are assayed for the response to various compounds using the Ca^2+ sensitive GCaMP6f protein stably expressed in the cells as readout.
The experiment is performed in a 384-well format according to the following procedures for either Ca^2+ free or Optimem conditions: • Ca^2+ free condition (in absence of extracellular Ca^2+): • 24 h after seeding, pre-incubate the cells at room temperature for about 10′. • Then remove the culture medium and replace it with 20 μL of Ca^2+ free Tyrode's buffer. • Start the experiment at the FLIPR^TETRA by injecting 10 μL/w of 3× concentrated test compounds and controls in Ca^2+ free Tyrode's buffer. Monitor the kinetic response over a period of 300 seconds. • Final DMSO concentration: 0.5% • Optimem condition (in presence of extracellular Ca^2+): • 24 h after seeding, pre-incubate the cells at room temperature for about 10′. • Start the experiment at the FLIPR^TETRA by injecting 10 μL/w of 3× concentrated test compounds and controls in Ca^2+ free Tyrode's buffer. Monitor the kinetic response over a period of 300 seconds. • Final DMSO concentration: 0.5%
Data from FLIPR^TETRA measurements are analyzed with the Genedata Screener® software.
Stimulator controls (Col 2): injection of ML-SA1 EC100 (50 μM) in alternated wells positions
Neutral controls (Col 2): injection of 0 mM Ca^2+ free Tyrode's buffer in alternated wells positions.
Test wells (Col 3-22): test compounds dose response curve from either 100 μM with 1:2 dilution steps or from 50 μM with 1:3.16 dilution steps.

T1 sequence (Q9GZU1 whole entry): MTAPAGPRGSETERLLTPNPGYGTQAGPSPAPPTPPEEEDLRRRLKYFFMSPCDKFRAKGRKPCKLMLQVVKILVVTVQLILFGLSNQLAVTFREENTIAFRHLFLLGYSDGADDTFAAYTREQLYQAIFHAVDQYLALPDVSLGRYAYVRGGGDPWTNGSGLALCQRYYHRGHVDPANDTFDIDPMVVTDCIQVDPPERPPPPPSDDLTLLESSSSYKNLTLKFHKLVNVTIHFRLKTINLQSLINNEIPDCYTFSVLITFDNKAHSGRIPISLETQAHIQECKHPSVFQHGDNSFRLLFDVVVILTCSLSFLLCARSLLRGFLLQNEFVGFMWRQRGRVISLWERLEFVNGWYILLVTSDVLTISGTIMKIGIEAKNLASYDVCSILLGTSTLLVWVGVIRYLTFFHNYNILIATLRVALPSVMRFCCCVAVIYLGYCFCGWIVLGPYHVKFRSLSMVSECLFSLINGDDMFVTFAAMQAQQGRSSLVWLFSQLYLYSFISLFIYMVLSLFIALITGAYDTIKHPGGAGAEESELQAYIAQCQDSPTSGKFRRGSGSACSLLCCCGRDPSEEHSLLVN

EC50 [µM] | SMILES
2.9 | CC(C)c1ccc(S(=O)(=O)Nc2ccccc2N2CCN(C(=O)OC(C)(C)C)CC2)cc1 [Example 28, tert-butyl 4-(2-((4-isopropylphenyl)sulfonamido)phenyl)piperazine-1-carboxylate]
39.5 | CN(C)S(=O)(=O)c1ccc(S(=O)(=O)NC2CCCCC2N2CCOCC2)cc1 (stereo not shown) [Example 61, N1,N1-dimethyl-N4-[2-(morpholin-4-yl)cyclohexyl]benzene-1,4-disulfonamide]
1.6 | Cc1cc(S(=O)(=O)Nc2ccccc2N2CCN(C(=O)OC(C)(C)C)CC2)c(C)s1 [Example 59, tert-butyl 4-(2-((2,5-dimethylthiophene)-3-sulfonamido)phenyl)piperazine-1-carboxylate]
33.5 | O=S(=O)(Nc1ccccc1N1CCCCC1)c1sccc1C1OCCO1 [Example 11, 3-(1,3-dioxolan-2-yl)-N-[2-(piperidin-1-yl)phenyl]thiophene-2-sulfonamide]
3.2 | CN(C)S(=O)(=O)c1ccc(S(=O)(=O)Nc2ccccc2N2CCC(Oc3ncccn3)CC2)cc1 [Example 89]
18.5 | CCCNC(=O)C1CCN(c2ccccc2NS(=O)(=O)c2ccc(S(=O)(=O)N(C)C)cc2)CC1 [Example 87, 1-{2-[4-(dimethylsulfamoyl)benzenesulfonamido]phenyl}-N-propylpiperidine-4-carboxamide]
50.2 | CN(C)c1ccccc1NS(=O)(=O)c1ccc(S(=O)(=O)N(C)C)cc1 [Example 3, N4-[2-(dimethylamino)phenyl]-N1,N1-dimethylbenzene-1,4-disulfonamide]
8.4 | CN(C(=O)c1ccc(S(=O)(=O)N(C)C)cc1)c1ccccc1N1CCC(Oc2ccccn2)CC1 [Example 10, 4-(N,N-dimethylsulfamoyl)-N-methyl-N-(2-(4-(pyridin-2-yloxy)piperidin-1-yl)phenyl)benzamide]
15.9 | CN(C)S(=O)(=O)c1ccc(S(=O)(=O)NC2CCCCC2N2CCC(Oc3ccccc3)CC2)cc1 (single isomer, unassigned) [Example 62, N1,N1-dimethyl-N4-[2-(4-phenoxypiperidin-1-yl)cyclohexyl]benzene-1,4-disulfonamide]
85.4 | CN(C)S(=O)(=O)c1ccc(CC(=O)Nc2ccccc2N2CCCC2)cc1 [Example 7, 2-[4-(dimethylsulfamoyl)phenyl]-N-[2-(pyrrolidin-1-yl)phenyl]acetamide]
34.5 | CN(C)S(=O)(=O)c1ccc(S(=O)(=O)Nc2ccccc2N2CCC(O)CC2)cc1 [Example 38, N1-(2-(4-hydroxypiperidin-1-yl)phenyl)-N4,N4-dimethylbenzene-1,4-disulfonamide]
7.7 | CN(C)S(=O)(=O)c1ccc(S(=O)(=O)Nc2ccccc2N2CCCC(c3ccccc3)C2)cc1 (stereo not shown) [Example 35, N1,N1-dimethyl-N4-[2-(3-phenylpiperidin-1-yl)phenyl]benzene-1,4-disulfonamide]
22.1 | CCCOC1CCN(c2ccccc2NS(=O)(=O)c2ccc(C)cc2C)CC1 [Example 66, 2,4-dimethyl-N-(2-(4-propoxypiperidin-1-yl)phenyl)benzenesulfonamide]
8.8 | CN(C)S(=O)(=O)c1ccc(S(=O)(=O)Nc2ccccc2N2CCN(C(=O)c3cccs3)CC2)cc1 [Example 79, N1,N1-dimethyl-N4-{2-[4-(thiophene-2-carbonyl)piperazin-1-yl]phenyl}benzene-1,4-disulfonamide]
5.7 | CN(C)S(=O)(=O)c1ccc(S(=O)(=O)Nc2ccccc2N2CCC(Oc3cccnc3)CC2)cc1 [Example 86, N1,N1-dimethyl-N4-{2-[4-(pyridin-3-yloxy)piperidin-1-yl]phenyl}benzene-1,4-disulfonamide]
58.9 | CN(C)c1ccc(S(=O)(=O)Nc2ccccc2N2CCCCC2)cc1 [Example 2, 4-(dimethylamino)-N-[2-(piperidin-1-yl)phenyl]benzene-1-sulfonamide]
3 | Cc1ccc(S(=O)(=O)Nc2ccccc2N2CCN(C(=O)OC(C)(C)C)CC2)cc1C [Example 51, tert-butyl 4-(2-((3,4-dimethylphenyl)sulfonamido)phenyl)piperazine-1-carboxylate]

EC50 [µM] | SMILES
6 | CN(C(=O)c1ccc(S(=O)(=O)N(C)C)cc1)c1ccccc1N1CCN(C(=O)OC(C)(C)C)CC1 [Example 5, tert-butyl 4-(2-(4-(N,N-dimethylsulfamoyl)-N-methylbenzamido)phenyl)piperazine-1-carboxylate]
2.8 | CN(C)S(=O)(=O)c1ccc(S(=O)(=O)Nc2ccccc2N2CCC(c3ccccc3)CC2)cc1 [Example 12, N1,N1-dimethyl-N4-[2-(4-phenylpiperidin-1-yl)phenyl]benzene-1,4-disulfonamide]
54.5 | CC(C)Oc1ccc(S(=O)(=O)Nc2ccccc2N2CCCCC2)cc1 [Example 39, 4-isopropoxy-N-(2-(piperidin-1-yl)phenyl)benzenesulfonamide]
7.3 | Cc1cncc(S(=O)(=O)Nc2ccccc2N2CCN(C(=O)OC(C)(C)C)CC2)c1 [Example 60, tert-butyl 4-(2-((5-methylpyridine)-3-sulfonamido)phenyl)piperazine-carboxylate]
98 | CN(C)S(=O)(=O)c1ccc(S(=O)(=O)NC2CCCCC2N2CCCCC2)cc1 (stereo not shown) [Example 22, N1,N1-dimethyl-N4-[2-(piperidin-1-yl)cyclohexyl]benzene-1,4-disulfonamide]
29.3 | CN(C(=O)c1ccc(S(=O)(=O)N(C)C)cc1)c1ccccc1N1CC2CCC1C2 (stereo not shown) [Example 49, N-(2-{2-azabicyclo[2.2.1]heptan-2-yl}phenyl)-4-(dimethylsulfamoyl)-N-methylbenzamide]
20 | Cc1cc(C)cc(S(=O)(=O)Nc2ccccc2N2CCN(C(=O)OC(C)(C)C)CC2)c1 [Example 54, tert-butyl 4-(2-((3,5-dimethylphenyl)sulfonamido)phenyl)piperazine-1-carboxylate]
6.8 | CN(C)S(=O)(=O)c1ccc(S(=O)(=O)Nc2ccccc2N2CCOC(c3ccccc3)C2)cc1 (stereo not shown) [Example 100, N1,N1-dimethyl-N4-(2-(2-phenylmorpholino)phenyl)benzene-1,4-disulfonamide]
11.1 | CN(C)S(=O)(=O)c1ccc(S(=O)(=O)Nc2ccccc2N2CCN(C(=O)Cc3cccs3)CC2)cc1 [Example 81, N1,N1-dimethyl-N4-(2-{4-[2-(thiophen-2-yl)acetyl]piperazin-1-yl}phenyl)benzene-1,4-disulfonamide]
15.5 | Cc1cccc(S(=O)(=O)Nc2ccccc2N2CCCCC2)c1 [Example 23, 3-methyl-N-[2-(piperidin-1-yl)phenyl]benzene-1-sulfonamide]
55.6 | CCc1ccc(S(=O)(=O)N(C)c2ccccc2N2CC3CCC2C3)s1 (stereo not shown) [Example 21, N-(2-{2-azabicyclo[2.2.1]heptan-2-yl}phenyl)-5-ethyl-N-methylthiophene-2-sulfonamide]
37.8 | CCCOC1CCN(c2ccccc2NS(=O)(=O)c2cc(C)oc2C)CC1 [Example 67, 2,5-dimethyl-N-(2-(4-propoxypiperidin-1-yl)phenyl)furan-3-sulfonamide]
1.9 | CCCOC1CCN(c2ccccc2NS(=O)(=O)c2ccc(S(=O)(=O)N(C)C)cc2)CC1 [Example 45, N1,N1-dimethyl-N4-(2-(4-propoxypiperidin-1-yl)phenyl)benzene-1,4-disulfonamide]
13.3 | CN(C)S(=O)(=O)c1ccc(S(=O)(=O)Nc2ccccc2N2CCOCC2)cc1 [Example 27, N1,N1-dimethyl-N4-[2-(morpholin-4-yl)phenyl]benzene-1,4-disulfonamide]
36.4 | Cc1noc(C)c1S(=O)(=O)Nc1ccccc1N1CCN(C(=O)OC(C)(C)C)CC1 [Example 64, tert-butyl 4-(2-((3,5-dimethylisoxazole)-4-sulfonamido)phenyl)piperazine-1-carboxylate]
19.2 | CN(C)S(=O)(=O)c1ccc(S(=O)(=O)Nc2ccccc2N2CCCC2)cc1 [Example 32, N1,N1-dimethyl-N4-[2-(pyrrolidin-1-yl)phenyl]benzene-1,4-disulfonamide]
4.9 | CC1Cc2cc(S(=O)(=O)Nc3ccccc3N3CCN(C(=O)OC(C)(C)C)CC3)ccc2O1 (single isomer, unassigned) [Example 93, tert-butyl 4-(2-((2-methyl-2,3-dihydrobenzofuran)-5-sulfonamido)phenyl)piperazine-1-carboxylate]
